Assay results: ChEMBL document CHEMBL1201862, “PubChem BioAssay data set” (2004)
Blank lines part the entries; values can stand above or below the compound they belong to. Calls of active or inactive are those of the source.

Columns and labels:
Type in all cases: functional
[1] = molecular target: T1, DNA dC->dU-editing enzyme APOBEC-3A (Homo sapiens, UniProt P31941); experiment: SAR analysis of small molecule inhibitors of APOBEC3A DNA Deaminase via a fluorescence-based single-stranded DNA deaminase assay - Set 2.; conditions: read-out: IC50_Mean
T1 sequence (P31941 whole entry): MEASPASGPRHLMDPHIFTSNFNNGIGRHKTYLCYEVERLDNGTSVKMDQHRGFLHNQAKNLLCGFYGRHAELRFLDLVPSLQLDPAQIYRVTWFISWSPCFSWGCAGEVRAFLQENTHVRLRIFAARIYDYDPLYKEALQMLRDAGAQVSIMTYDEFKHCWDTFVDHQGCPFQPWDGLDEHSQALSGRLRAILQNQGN

[2] = molecular target: T2, DNA dC->dU-editing enzyme APOBEC-3G (Homo sapiens, UniProt Q9HC16); experiment: Dose Response confirmation of small molecule APOBEC3G DNA Deaminase Inhibitors via a fluorescence-based single-stranded DNA deaminase assay. [Related pubchem assays (depositor defined):AID493012, AID493028]
T2 sequence (Q9HC16 whole entry): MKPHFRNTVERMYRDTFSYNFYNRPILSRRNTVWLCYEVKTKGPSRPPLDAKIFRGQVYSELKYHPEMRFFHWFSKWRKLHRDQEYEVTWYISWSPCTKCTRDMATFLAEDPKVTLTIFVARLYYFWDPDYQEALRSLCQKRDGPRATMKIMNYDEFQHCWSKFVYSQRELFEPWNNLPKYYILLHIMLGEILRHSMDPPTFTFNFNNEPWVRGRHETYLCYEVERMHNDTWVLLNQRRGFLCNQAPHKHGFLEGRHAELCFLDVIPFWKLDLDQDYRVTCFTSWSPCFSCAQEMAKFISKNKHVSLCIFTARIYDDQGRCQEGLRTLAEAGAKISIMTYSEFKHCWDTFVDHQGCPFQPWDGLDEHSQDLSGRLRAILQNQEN

[3] = molecular target: T3, Rac GTPase-activating protein 1 (Homo sapiens, UniProt Q9H0H5); experiment: blockers of MgcRacGAP-driven Rac1 GTP hydrolysis – biochemical, ADP Hunter fluorescence, primary and confirmatory, confirmation (AID 624330)
T3 sequence (Q9H0H5 whole entry): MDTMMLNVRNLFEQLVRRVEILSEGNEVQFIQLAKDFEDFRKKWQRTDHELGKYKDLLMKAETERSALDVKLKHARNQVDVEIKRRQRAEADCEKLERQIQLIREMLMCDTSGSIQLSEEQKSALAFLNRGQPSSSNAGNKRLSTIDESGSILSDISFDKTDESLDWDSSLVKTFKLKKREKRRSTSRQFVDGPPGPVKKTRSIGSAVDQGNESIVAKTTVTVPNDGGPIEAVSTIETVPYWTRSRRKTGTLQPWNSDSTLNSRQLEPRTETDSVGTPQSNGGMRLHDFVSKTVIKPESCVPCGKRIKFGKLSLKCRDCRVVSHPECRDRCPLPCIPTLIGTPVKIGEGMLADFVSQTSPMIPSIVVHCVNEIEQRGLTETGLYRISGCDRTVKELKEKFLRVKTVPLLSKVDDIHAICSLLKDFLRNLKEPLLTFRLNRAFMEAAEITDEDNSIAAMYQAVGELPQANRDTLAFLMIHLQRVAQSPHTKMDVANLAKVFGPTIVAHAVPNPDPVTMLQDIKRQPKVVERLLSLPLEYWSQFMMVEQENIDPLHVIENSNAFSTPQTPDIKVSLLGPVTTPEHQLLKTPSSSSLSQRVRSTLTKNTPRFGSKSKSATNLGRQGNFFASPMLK

[4] = molecular target: T1, DNA dC->dU-editing enzyme APOBEC-3A; experiment: A3A deaminase inhibition for selectivity – biochemical, dose response (AID 504722)
[5] = molecular target: T2, DNA dC->dU-editing enzyme APOBEC-3G; experiment: SAR analysis of small molecule inhibitors of APOBEC3G DNA Deaminase via a fluorescence-based single-stranded DNA deaminase assay - Set 2.; conditions: read-out: IC50_Mean
[6] = molecular target: Death-associated protein kinase 3 (Homo sapiens, UniProt O43293);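 note: measured as one member of a kinome-wide profiling panel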
[7] = molecular target: Serine/threonine-protein kinase pim-1 (Homo sapiens, UniProt P11309)
[8] = molecular target: Mitogen-activated protein kinase kinase kinase kinase 2 (Homo sapiens, UniProt Q12851);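 note: measured as one member of a kinome-wide kinase panel, with MAP4K2 as the panel entry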
[9] = molecular target: Serine/threonine-protein kinase PAK 4 (Homo sapiens, UniProt O96013);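 note: value obtained within a kinome profiling panel in which PAK4 was one of the panel members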
[10] = molecular target: Vascular endothelial growth factor receptor 2 (Homo sapiens, UniProt P35968)
Chain of Vascular endothelial growth factor receptor 2 (P35968 whole entry): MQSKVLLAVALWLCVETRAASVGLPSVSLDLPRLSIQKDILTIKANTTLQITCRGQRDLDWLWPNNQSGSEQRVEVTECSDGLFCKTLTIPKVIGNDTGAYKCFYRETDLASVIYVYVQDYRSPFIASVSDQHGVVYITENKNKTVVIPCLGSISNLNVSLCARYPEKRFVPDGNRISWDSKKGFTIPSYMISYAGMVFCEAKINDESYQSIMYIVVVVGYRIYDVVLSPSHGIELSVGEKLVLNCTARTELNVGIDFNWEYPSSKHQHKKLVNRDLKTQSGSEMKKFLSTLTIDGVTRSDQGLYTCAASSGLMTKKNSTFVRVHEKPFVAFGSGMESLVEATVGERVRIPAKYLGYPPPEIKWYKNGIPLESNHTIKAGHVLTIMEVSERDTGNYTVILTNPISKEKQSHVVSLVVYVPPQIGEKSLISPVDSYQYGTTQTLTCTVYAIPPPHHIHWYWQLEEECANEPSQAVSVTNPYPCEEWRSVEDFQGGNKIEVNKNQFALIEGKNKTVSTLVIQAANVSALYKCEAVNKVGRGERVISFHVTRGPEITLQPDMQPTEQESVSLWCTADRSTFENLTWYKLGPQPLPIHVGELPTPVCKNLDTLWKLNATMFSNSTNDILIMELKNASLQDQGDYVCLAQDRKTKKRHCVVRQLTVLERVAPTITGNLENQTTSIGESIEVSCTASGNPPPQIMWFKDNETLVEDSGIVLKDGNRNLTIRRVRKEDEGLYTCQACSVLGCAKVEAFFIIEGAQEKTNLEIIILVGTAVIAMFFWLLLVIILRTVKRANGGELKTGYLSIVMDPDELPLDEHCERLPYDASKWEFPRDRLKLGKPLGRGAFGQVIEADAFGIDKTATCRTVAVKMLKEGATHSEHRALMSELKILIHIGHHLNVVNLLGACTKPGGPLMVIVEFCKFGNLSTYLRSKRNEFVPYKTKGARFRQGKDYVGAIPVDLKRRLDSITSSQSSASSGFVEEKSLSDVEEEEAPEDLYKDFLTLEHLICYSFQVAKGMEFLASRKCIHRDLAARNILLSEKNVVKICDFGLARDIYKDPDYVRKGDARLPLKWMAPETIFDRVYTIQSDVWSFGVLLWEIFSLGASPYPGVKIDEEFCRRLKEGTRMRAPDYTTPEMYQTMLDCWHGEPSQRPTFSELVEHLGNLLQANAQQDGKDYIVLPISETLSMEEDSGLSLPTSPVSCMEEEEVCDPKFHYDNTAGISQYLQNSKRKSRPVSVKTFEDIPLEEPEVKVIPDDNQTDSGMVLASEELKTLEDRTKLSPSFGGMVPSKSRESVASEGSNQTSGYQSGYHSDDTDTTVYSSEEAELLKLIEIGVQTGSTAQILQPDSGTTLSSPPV

[11] = molecular target: Mitogen-activated protein kinase kinase kinase kinase 4 (Homo sapiens, UniProt O95819)
[12] = molecular target: cAMP-dependent protein kinase catalytic subunit PRKX (Homo sapiens, UniProt P51817)
[13] = molecular target: Platelet-derived growth factor receptor alpha (Homo sapiens, UniProt P16234); experiment: Navigating the Kinome. Panel member name: PDGFRA
[14] = molecular target: Inhibitor of nuclear factor kappa-B kinase subunit epsilon (Homo sapiens, UniProt Q14164); experiment: Navigating the Kinome. Panel member name: IKBKE
[15] = molecular target: ALK tyrosine kinase receptor (Homo sapiens, UniProt Q9UM73);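 note: ALK tested as one member of a kinase panel screen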
[16] = molecular target: cAMP-dependent protein kinase catalytic subunit alpha (Homo sapiens, UniProt P17612)
[17] = molecular target: Tyrosine-protein kinase Lck (Homo sapiens, UniProt P06239);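 note: lck was assayed as one member of a kinase panel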
[18] = molecular target: Leucine-rich repeat serine/threonine-protein kinase 2 (Homo sapiens, UniProt Q5S007);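 note: value from a broad kinome-wide panel profiling study in which LRRK2 was one of the kinases tested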
[19] = molecular target: Dual specificity tyrosine-phosphorylation-regulated kinase 1A (Homo sapiens, UniProt Q13627);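 note: measured against DYRK1A as one member of a broad kinome profiling panel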
[20] = molecular target: Proto-oncogene tyrosine-protein kinase receptor Ret (Homo sapiens, UniProt P07949);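 note: measured within a kinome-wide profiling panel, RET as the panel member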
[21] = molecular target: Leukocyte tyrosine kinase receptor (Homo sapiens, UniProt P29376); experiment: Navigating the Kinome. Panel member name: LTK
[22] = molecular target: Mitogen-activated protein kinase 8 (Homo sapiens, UniProt P45983);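 note: value comes from one member of a kinome-wide kinase profiling panel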
[23] = molecular target: Dual specificity protein kinase CLK4 (Homo sapiens, UniProt Q9HAZ1)
[24] = molecular target: Cyclin-dependent kinase 19 (Homo sapiens, UniProt Q9BWU1); experiment: Navigating the Kinome. Panel member name: CDC2L6
Chain of Cyclin-dependent kinase 19 (Q9BWU1 whole entry): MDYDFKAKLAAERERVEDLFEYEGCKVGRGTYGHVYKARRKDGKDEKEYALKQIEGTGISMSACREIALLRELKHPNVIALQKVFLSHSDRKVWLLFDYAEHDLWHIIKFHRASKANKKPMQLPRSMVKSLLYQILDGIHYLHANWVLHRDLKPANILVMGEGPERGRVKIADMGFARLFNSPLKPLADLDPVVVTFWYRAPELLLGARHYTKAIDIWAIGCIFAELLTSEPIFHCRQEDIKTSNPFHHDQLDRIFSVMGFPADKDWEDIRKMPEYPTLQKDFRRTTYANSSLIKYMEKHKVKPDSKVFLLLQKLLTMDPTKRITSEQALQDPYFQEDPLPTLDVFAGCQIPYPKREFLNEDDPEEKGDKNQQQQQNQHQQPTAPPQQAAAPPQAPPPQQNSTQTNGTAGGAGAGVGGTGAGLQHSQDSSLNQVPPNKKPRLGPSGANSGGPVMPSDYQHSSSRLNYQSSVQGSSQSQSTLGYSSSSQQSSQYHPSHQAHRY

[25] = molecular target: Dual specificity mitogen-activated protein kinase kinase 1 (Homo sapiens, UniProt Q02750); experiment: Navigating the Kinome. Panel member name: MAP2K1
[26] = molecular target: Glycogen synthase kinase-3 alpha (Homo sapiens, UniProt P49840);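 note: GSK3A result taken from a broad kinome-wide kinase panel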
[27] = molecular target: Mitogen-activated protein kinase kinase kinase kinase 5 (Homo sapiens, UniProt Q9Y4K4);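 note: measured as one member of a kinome-spanning kinase panel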
[28] = molecular target: Cyclin-dependent kinase 8 (Homo sapiens, UniProt P49336); experiment: Navigating the Kinome. Panel member name: CDK8
[29] = molecular target: Receptor-type tyrosine-protein kinase FLT3 (Homo sapiens, UniProt P36888);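 note: FLT3 was tested as one member of a kinome-wide kinase panel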
[30] = molecular target: Tyrosine-protein kinase receptor TYRO3 (Homo sapiens, UniProt Q06418);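 note: TYRO3 value obtained as one member of a kinome-wide profiling panel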
[31] = molecular target: Serine/threonine-protein kinase TAO1 (Homo sapiens, UniProt Q7L7X3)
[32] = molecular target: Macrophage-stimulating protein receptor (Homo sapiens, UniProt Q04912); experiment: Navigating the Kinome. Panel member name: MST1R
[33] = molecular target: Cyclin-dependent kinase 9 (Homo sapiens, UniProt P50750);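 note: value from the CDK9 entry of a kinome-spanning kinase panel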
Chain of Cyclin-dependent kinase 9 (P50750 whole entry): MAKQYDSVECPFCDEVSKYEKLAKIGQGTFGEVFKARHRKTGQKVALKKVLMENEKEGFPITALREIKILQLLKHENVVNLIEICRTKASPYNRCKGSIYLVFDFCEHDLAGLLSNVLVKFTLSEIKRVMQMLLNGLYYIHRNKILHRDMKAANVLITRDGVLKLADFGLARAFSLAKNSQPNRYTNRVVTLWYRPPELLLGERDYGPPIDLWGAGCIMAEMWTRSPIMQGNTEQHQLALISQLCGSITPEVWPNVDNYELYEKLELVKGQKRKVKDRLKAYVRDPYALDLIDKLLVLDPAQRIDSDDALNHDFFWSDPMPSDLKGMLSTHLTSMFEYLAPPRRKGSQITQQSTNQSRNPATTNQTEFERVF

[34] = molecular target: Vascular endothelial growth factor receptor 1 (Homo sapiens, UniProt P17948);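 note: measured within a kinome-wide profiling panel, FLT1 as the panel member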
[35] = molecular target: Aurora kinase A (Homo sapiens, UniProt O14965);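 note: value from the Navigating the Kinome kinase panel profiling, panel entry STK6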
Chain of Aurora kinase A (O14965 whole entry): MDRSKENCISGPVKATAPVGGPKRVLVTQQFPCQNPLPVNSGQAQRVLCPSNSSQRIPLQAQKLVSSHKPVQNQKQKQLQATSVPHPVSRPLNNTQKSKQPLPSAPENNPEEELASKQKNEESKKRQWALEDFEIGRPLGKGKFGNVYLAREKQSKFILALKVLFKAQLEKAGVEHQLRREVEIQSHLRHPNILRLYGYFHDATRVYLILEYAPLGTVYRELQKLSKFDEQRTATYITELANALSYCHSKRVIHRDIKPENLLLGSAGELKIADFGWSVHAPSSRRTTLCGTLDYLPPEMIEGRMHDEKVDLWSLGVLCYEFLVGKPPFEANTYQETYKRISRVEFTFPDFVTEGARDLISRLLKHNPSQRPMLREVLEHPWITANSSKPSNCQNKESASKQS

[36] = molecular target: Fibroblast growth factor receptor 1 (Homo sapiens, UniProt P11362)
[37] = molecular target: Calcium/calmodulin-dependent protein kinase type II subunit alpha (Homo sapiens, UniProt Q9UQM7); experiment: Navigating the Kinome. Panel member name: CAMK2A
[38] = molecular target: Tyrosine-protein kinase JAK3 (Homo sapiens, UniProt P52333)
[39] = molecular target: Mitogen-activated protein kinase 9 (Homo sapiens, UniProt P45984);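 note: value from a kinome panel profiling assay, MAPK9 panel entry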
Chain of Mitogen-activated protein kinase 9 (P45984 whole entry): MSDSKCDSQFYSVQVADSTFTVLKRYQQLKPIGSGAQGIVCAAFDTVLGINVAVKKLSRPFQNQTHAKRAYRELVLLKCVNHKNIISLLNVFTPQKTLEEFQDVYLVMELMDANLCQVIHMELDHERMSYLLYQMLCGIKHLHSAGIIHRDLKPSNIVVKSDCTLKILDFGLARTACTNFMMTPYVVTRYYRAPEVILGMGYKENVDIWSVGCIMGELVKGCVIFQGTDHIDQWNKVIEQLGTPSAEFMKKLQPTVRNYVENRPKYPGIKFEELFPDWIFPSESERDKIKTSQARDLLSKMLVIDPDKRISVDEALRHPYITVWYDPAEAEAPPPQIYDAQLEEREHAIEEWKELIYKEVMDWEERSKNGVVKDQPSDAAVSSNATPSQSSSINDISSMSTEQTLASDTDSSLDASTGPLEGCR

[40] = molecular target: Tyrosine-protein kinase JAK2 (Homo sapiens, UniProt O60674);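 note: JAK2 tested as one member of a kinase panel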
[41] = molecular target: Mitogen-activated protein kinase 14 (Homo sapiens, UniProt Q16539);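 note: part of a kinome-wide panel, MAPK14 entry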
[42] = molecular target: MAP/microtubule affinity-regulating kinase 3 (Homo sapiens, UniProt P27448);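 note: MARK3 affinity measured as one member of a kinome panel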
[43] = molecular target: Ribosomal protein S6 kinase alpha-3 (Homo sapiens, UniProt P51812);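 note: measured within a kinome-wide profiling panel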
[44] = molecular target: Casein kinase I isoform alpha (Homo sapiens, UniProt P48729)
[45] = molecular target: Insulin-like growth factor 1 receptor (Homo sapiens, UniProt P08069); experiment: Navigating the Kinome. Panel member name: IGF1R
[46] = molecular target: 5'-AMP-activated protein kinase catalytic subunit alpha-1 (Homo sapiens, UniProt Q13131)
[47] = molecular target: Glycogen synthase kinase-3 beta (Homo sapiens, UniProt P49841);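 note: value comes from a broad kinome profiling panel, with GSK3B as the panel member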
[48] = molecular target: Macrophage colony-stimulating factor 1 receptor (Homo sapiens, UniProt P07333);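 note: value comes from the Navigating the Kinome screening panel, CSF1R member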
Chain of Macrophage colony-stimulating factor 1 receptor (P07333 whole entry): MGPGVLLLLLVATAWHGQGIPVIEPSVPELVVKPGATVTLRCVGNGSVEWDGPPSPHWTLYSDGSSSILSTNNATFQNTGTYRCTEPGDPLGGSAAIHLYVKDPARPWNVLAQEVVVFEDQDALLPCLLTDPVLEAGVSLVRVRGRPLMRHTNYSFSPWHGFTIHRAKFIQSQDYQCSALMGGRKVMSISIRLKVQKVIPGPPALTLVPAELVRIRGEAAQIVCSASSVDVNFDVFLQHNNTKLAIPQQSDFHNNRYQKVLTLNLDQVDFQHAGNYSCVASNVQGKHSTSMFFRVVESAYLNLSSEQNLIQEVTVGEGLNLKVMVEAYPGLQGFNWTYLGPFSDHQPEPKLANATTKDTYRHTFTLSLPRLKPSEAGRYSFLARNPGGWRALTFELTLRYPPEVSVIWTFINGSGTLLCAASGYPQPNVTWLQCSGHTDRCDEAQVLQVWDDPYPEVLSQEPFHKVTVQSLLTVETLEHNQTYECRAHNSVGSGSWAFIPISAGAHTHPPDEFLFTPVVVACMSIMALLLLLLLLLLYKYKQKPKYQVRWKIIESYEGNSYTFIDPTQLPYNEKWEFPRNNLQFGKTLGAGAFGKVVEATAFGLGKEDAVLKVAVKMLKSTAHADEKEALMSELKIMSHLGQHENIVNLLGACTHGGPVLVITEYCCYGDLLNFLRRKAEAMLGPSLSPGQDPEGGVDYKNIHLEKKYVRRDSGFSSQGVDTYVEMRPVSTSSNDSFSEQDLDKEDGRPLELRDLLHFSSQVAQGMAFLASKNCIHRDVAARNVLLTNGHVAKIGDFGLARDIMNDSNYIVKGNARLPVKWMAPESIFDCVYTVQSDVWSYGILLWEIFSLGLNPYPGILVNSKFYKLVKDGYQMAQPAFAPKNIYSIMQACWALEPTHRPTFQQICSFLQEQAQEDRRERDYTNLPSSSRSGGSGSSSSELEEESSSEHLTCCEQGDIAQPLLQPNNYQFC

[49] = molecular target: Tyrosine-protein kinase Fyn (Homo sapiens, UniProt P06241)
[50] = molecular target: Tyrosine-protein kinase ABL1 (Homo sapiens, UniProt P00519)
[51] = molecular target: Serine/threonine-protein kinase TBK1 (Homo sapiens, UniProt Q9UHD2); experiment: Navigating the Kinome. Panel member name: TBK1
[52] = molecular target: Dual specificity protein kinase CLK2 (Homo sapiens, UniProt P49760)
[53] = molecular target: G protein-coupled receptor kinase 5 (Homo sapiens, UniProt P34947); experiment: Navigating the Kinome. Panel member name: GPRK5
[54] = molecular target: Dual specificity mitogen-activated protein kinase kinase 2 (Homo sapiens, UniProt P36507); experiment: Navigating the Kinome. Panel member name: MAP2K2
[55] = molecular target: Melanin-concentrating hormone receptor 1 (Homo sapiens, UniProt Q99705); experiment: Late-stage fluorescence-based counterscreen for antagonists of the G-protein coupled receptor 7 (GPR7): cell-based dose response assay to identify antagonists of the melanin-concentrating hormone receptor 1 (MCHR1) Set 5.
[56] = molecular target: Neuropeptides B/W receptor type 1 (Homo sapiens, UniProt P48145); experiment: human NPBW1 receptor blockade, IC50 – cell-based, fluorescence, dose response, set 5, late-stage follow-up (AID 588566)
Chain of Neuropeptides B/W receptor type 1 (P48145 whole entry): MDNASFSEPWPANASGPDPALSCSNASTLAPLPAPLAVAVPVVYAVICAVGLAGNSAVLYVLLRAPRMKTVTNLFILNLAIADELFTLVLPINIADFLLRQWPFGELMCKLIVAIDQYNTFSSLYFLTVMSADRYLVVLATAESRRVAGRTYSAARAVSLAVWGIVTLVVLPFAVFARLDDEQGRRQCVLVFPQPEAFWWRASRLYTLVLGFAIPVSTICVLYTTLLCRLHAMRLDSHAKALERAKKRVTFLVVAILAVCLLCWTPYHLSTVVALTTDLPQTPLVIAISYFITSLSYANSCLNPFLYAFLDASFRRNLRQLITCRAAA

Structure (SMILES): O=c1c2ccccc2n2c(=S)[nH]nc2n1-c1ccccc1
- IC50 [1]: > 99 µM (inactive)
- IC50 [2]: 4.67 µM (active)
- IC50 [3]: 25.8 µM (active)
- IC50 [4]: > 100 µM (inactive)
- IC50 [5]: 0.376 µM (active)

- Ki [7]: > 6.31 µM (inactive)
- Ki [8]: > 2.51 µM (inactive)
- Ki [9]: 1.58 µM (active)
- Ki [10]: > 2.51 µM (inactive)
- Ki [11]: > 5.01 µM (inactive)
- Ki [12]: 0.00631 µM (active)
- Ki [13]: > 2.51 µM (inactive)
- Ki [14]: > 3.16 µM (inactive)
- Ki [15]: > 6.31 µM (inactive)
- Ki [16]: > 1.26 µM (inactive)
- Ki [17]: > 6.31 µM (inactive)
- Ki [18]: > 2.51 µM (inactive)
- Ki [19]: > 2 µM (inactive)
- Ki [20]: > 3.16 µM (inactive)
- Ki [21]: > 2.51 µM (inactive)
- Ki [22]: > 5.01 µM (inactive)
- Ki [23]: > 2.51 µM (inactive)
- Ki [24]: > 100 µM (inactive)
- Ki [25]: > 3.16 µM (inactive)
- Ki [26]: > 3.98 µM (inactive)
- Ki [27]: > 3.98 µM (inactive)
- Ki [28]: > 3.98 µM (inactive)
- Ki [29]: > 3.16 µM (inactive)
- Ki [30]: > 3.16 µM (inactive)
- Ki [31]: > 6.31 µM (inactive)
- Ki [32]: > 3.98 µM (inactive)
- Ki [33]: > 1.58 µM (inactive)
- Ki [34]: > 3.98 µM (inactive)
- Ki [35]: > 1.58 µM (inactive)
- Ki [36]: > 3.98 µM (inactive)
- Ki [37]: > 7.94 µM (inactive)
- Ki [38]: > 5.01 µM (inactive)
- Ki [39]: > 3.98 µM (inactive)
- Ki [40]: > 2.51 µM (inactive)
- Ki [41]: > 3.98 µM (inactive)
- Ki [42]: > 5.01 µM (inactive)
- Ki [43]: > 3.98 µM (inactive)
- Ki [44]: > 3.98 µM (inactive)
- Ki [45]: > 2.51 µM (inactive)
- Ki [46]: > 3.16 µM (inactive)
- Ki [47]: > 3.98 µM (inactive)
- Ki [48]: > 2.51 µM (inactive)
- Ki [49]: > 6.31 µM (inactive)
- Ki [50]: > 3.98 µM (inactive)
- Ki [51]: > 3.16 µM (inactive)
- Ki [52]: > 3.98 µM (inactive)
- Ki [53]: > 3.98 µM (inactive)
- Ki [54]: > 3.98 µM (inactive)
Structure (SMILES): Cc1cc(O)nc2[nH]nc(-c3cccc(-c4ccc(Cl)cc4)c3)c12
- Ki [6]: > 5.01 µM (inactive)

- IC50 [55]: 7.88 µM (active)
- IC50 [56]: 9.29 µM (active)
Structure (SMILES): CN(C)C(=O)c1ccc(Oc2c(Cl)cnn(Cc3cccc4ccccc34)c2=O)cc1
